From patent publication US10123994B2, “Heterocyclic derivative having AMPK-activating activity” (SHIONOGI & CO., LTD., priority 2014, dated 2018)

Target: T1, Human AMPK α2β2γ1 (Homo sapiens, UniProt O43741+P54619+P54646)
T1 construct: The full length cDNAs of human AMPK β2 (NM_005399.3) and human AMPK α2 (NM_006252.3); The full length cDNAs of human AMPK β2 (NM_005399.3); the full length cDNA of human AMPK γ1 (NM_002733.3); 6xHis (N); made in house; host or cells: Escherichia coli BL21 CodonPlus (DE3)-RIL (AMPK); BL21 Star (DE3) (CaMKK2)
Assay: Test Example 2: AMPK activator evaluation, mobility-shift kinase assay after CaMKK2 phosphorylation
Assay type: biochemical
Conditions: for EC150: compound concentration showing 150% relative to the control (100%); for Emax: maximum rate of increase in activity within the measurement range, control = 100%
Experimental: The full length cDNAs of human AMPK β2 (NM_005399.3) and human AMPK α2 (NM_006252.3) were inserted into the MCS1 and MCS2 of the pETDuet-1 vector to prepare a human AMPK β2 and human AMPK α2 (6× His tag at the 5′ terminus) expressing plasmid. The plasmid was cotransfected with an expression plasmid, in which the full length cDNA of human AMPK γ1 (NM_002733.3) had been inserted into pET28b(+), into BL21 CodonPlus (DE3)-RIL to obtain an expression strain. The expression strain was cultured in TB medium, followed by induction with 0.5 mM IPTG, and cultured at 25° C. for 3 hours and then harvested. After ultrasonication, supernatant was collected and applied to Histrap FF column (GE) and RESOUECE Q column (GE) to prepare 12.5 mg of purified sample containing three types of subunit from 1.8 L of broth.
An expression vector, in which the full length cDNA of human CAMKK β (NM_172226.1) had been inserted into pGEX-6P-3, was transfected into BL21 Star (DE3). The expression strain was cultured in TB medium, followed by induction with 0.5 mM IPTG, and cultured at 25° C. for 3 hours and then harvested. After ultrasonication, supernatant was collected and applied to GSTrap FF column (GE) to prepare 14 mg of GST-fused CAMKK β from 720 ml of broth.
Thus, phosphorylation treatment was carried out as pretreatment.
Human AMPK α2β2γ1 in an amount to give a conversion rate of approximately 10% by reaction for 2 hours, and CaMKK2 in an amount capable of sufficiently imparting activity to AMPK for one hour were mixed in a buffer solution consisting of a 50 mM HEPES-NaOH buffer solution (pH 7.0), 100 mM NaCl, 5 mM magnesium chloride, 0.1% bovine serum albumin, 0.2 mM sodium orthovanadate(V), 1 mM ethylene glycol-bis(2-aminoethyl ether)-N,N,N′,N′-tetraacetic acid (EGTA), 5 mM disodium β-glycerophosphate, 1 mM dithiothreitol and 0.2 mM ATP, and the obtained liquid was left to stand at 25° C. for 1 to 1.5 hours to sufficiently phosphorylate AMPK.
After that, to the enzyme liquid, which had been subjected to phosphorylation treatment, a compound dissolved in DMSO was added so as to have a 1% DMSO concentration. The obtained liquid was left to stand for 10 minutes.
To the liquid, a substrate solution consisting of a 50 mM HEPES-NaOH buffer solution (pH 7.0), 100 mM NaCl, 10 mM magnesium chloride, 0.1% bovine serum albumin, 0.2 mM sodium orthovanadate(V), 1 mM ethylene glycol-bis(2-aminoethyl ether)-N,N,N′,N′-tetraacetic acid (EGTA), 5 mM disodium β-glycerophosphate, 2 mM dithiothreitol, 0.4 mM ATP and 3 μM FL-Peptide 7 (manufactured by Caliper Life Sciences, Inc.) was added in equal amount (10 μl in total). The obtained liquid was allowed to react at 25° C. for 2 hours, and 10 μl of 20 mM EDTA was then added thereto to stop the reaction.
To detect phosphorylated fluorescent substrates, the reaction liquid was applied to a measuring device, LabChip EZ Reader II manufactured by Caliper Life Science, Inc., for detecting fluorescence by using differences in mobility due to differences in charge. The setting conditions for the device were pressure, −1.5 PSI; upstream voltage, −2250 V; downstream voltage, −400 V; post sample buffer sip time, 40 seconds; final delay, 120 seconds; and peak order, Product First.
A conversion rate was calculated from the peak heights of the resulting substrate and product. The conversion rate when not containing a compound was used as a control, and a concentration dependent curve was made by plotting the rate of increase in activity to the control at each concentration of a compound.

T1 sequence (P54646 whole entry): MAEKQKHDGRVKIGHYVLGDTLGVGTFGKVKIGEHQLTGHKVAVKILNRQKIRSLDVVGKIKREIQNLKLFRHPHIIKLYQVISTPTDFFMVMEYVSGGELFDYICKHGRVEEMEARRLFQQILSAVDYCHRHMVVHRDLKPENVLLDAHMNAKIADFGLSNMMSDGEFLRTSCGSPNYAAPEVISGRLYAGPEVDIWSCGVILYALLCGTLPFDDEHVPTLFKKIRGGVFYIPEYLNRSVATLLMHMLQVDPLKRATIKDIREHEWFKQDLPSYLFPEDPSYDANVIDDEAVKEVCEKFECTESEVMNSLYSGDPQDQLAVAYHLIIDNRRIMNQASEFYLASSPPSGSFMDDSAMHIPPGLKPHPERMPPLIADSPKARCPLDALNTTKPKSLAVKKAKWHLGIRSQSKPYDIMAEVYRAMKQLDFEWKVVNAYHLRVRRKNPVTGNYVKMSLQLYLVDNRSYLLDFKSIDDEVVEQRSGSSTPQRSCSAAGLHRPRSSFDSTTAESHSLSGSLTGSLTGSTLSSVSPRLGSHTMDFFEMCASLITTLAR
T1 sequence (O43741 whole entry): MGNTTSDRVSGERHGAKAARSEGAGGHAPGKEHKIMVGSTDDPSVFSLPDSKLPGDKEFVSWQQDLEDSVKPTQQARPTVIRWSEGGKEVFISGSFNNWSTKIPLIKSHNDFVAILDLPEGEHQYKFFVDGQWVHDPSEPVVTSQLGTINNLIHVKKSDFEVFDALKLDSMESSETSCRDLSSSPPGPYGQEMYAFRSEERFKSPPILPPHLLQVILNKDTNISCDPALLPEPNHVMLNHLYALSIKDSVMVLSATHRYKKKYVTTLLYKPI
T1 sequence (P54619 whole entry): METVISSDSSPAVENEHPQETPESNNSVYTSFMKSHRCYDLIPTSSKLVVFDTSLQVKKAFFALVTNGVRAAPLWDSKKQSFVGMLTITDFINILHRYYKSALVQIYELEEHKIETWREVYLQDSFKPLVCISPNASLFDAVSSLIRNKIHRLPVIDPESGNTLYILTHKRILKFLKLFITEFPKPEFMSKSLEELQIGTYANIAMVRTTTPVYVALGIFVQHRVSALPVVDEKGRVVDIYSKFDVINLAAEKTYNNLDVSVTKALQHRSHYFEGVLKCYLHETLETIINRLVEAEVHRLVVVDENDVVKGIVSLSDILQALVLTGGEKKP

Row | Structure (SMILES) | EC150 | Emax
1 | OCCn1ccc(CNc2nc3nc(O[C@@H]4CO[C@H]5[C@@H]4OC[C@H]5O)[nH]c3cc2Cl)n1 [Compound I-2-62] | 94 nM | 388%
2 | Cc1cccc(F)c1CNc1nc2nc(O[C@@H]3CO[C@H]4[C@@H]3OC[C@H]4O)[nH]c2cc1Cl [Compound I-1-6] | 21 nM | 496%
3 | O[C@@H]1CO[C@H]2[C@@H]1OC[C@H]2Oc1nc2nc(NC3COc4ccccc43)c(Cl)cc2[nH]1 (stereo partly drawn) [Compound I-1-11] | 170 nM | 512%
4 | O=C1CCCN1CCOc1cc(F)c(CNc2nc3nc(O[C@@H]4CO[C@H]5[C@@H]4OC[C@H]5O)[nH]c3cc2Cl)c(F)c1 [Compound I-2-188] | 15 nM | 603%
5 | O[C@@H]1CO[C@H]2[C@@H]1OC[C@H]2Oc1nc2nc(NC3CCc4ccccc43)c(Cl)cc2[nH]1 (stereo partly drawn) [Compound I-1-8] | 67 nM | 617%
6 | CN1CCC(Oc2cc(F)c(CNc3nc4nc(O[C@@H]5CO[C@H]6[C@@H]5OC[C@H]6O)[nH]c4cc3Cl)c(F)c2)CC1 [Compound I-2-192] | 7.6 nM | 568%
